# Data as given in BindingDB's records for doi:10.1186/1471-2091-12-59 (Ghent University, 2011).
# Experiments:
# Heme-binding protein A [1] = target: T1, Heme-binding protein A (Glaesserella parasuis, UniProt B8F653); assay: Isothermal Titration Calorimetry (ITC); details: pH 7.4; 37 °C
# T1 sequence (B8F653 whole entry): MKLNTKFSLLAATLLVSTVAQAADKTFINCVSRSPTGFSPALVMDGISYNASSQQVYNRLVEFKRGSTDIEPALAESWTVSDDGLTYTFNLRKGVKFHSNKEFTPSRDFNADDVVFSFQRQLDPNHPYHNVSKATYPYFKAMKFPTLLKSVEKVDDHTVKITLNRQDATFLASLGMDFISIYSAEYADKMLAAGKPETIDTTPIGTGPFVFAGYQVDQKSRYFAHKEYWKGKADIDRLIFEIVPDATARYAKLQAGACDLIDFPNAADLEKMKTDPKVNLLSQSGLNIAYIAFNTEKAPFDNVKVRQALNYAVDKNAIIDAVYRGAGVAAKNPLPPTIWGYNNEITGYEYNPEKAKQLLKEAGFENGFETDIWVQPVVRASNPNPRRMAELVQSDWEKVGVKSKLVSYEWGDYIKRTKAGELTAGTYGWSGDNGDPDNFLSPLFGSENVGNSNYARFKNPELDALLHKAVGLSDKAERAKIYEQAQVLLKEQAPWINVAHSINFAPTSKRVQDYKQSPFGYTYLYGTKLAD
# Procedure: (§1) Purified test proteins were dialyzed overnight against 10 mM Tris-HCl, pH 7.4, at 4°C. The resultant dialysis buffer was then used to dissolve the test compounds. Titrations were always preceded by an initial injection of 3 μL and were carried out using 10-μL injections applied 300 s apart. The sample was stirred at a speed of 400 rpm throughout.
# Heme-binding protein A [2] = target: Heme-binding protein A (Actinobacillus pleuropneumoniae serovar 9 str. CVJ13261, UniProt A3N3U8); assay: Isothermal Titration Calorimetry (ITC); details: pH 7.4; 37 °C
# Procedure: as §1
# Heme-binding protein A (Actinobacillus pleuropneumoniae serovar 9 str. CVJ13261, UniProt A3N3U8), sequence (A3N3U8 whole entry): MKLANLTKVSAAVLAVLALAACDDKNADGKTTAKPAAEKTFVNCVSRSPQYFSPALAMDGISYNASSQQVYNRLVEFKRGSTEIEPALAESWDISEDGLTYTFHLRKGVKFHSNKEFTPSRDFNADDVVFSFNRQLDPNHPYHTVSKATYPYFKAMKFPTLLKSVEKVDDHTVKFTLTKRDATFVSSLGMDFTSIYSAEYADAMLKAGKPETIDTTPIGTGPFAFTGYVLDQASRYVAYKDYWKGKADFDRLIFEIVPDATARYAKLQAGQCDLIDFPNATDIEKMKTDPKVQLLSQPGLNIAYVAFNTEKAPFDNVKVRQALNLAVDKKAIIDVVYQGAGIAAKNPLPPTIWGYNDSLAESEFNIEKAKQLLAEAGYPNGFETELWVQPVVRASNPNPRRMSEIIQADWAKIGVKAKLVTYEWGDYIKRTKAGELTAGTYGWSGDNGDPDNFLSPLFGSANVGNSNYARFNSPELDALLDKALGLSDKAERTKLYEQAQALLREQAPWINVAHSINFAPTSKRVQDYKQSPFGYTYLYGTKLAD
SMILES,Kd (Heme-binding protein A [1]),Kd (Heme-binding protein A [2])
N[C@@H](CCC(=O)N[C@@H](CS)C(=O)NCC(=O)O)C(=O)O [GLUTATHIONE],1900 nM,–
CSC[C@H](NC(=O)CC[C@H](N)C(=O)O)C(=O)NCC(=O)O [S-methylglutathione],900 nM,1170 nM
